The text below walks through data of patent US20090041666A1, “Ophthalmic formulations of Amyloid-beta contrast agent and methods of use thereof” (priority 2007, published 2009).

A short description of series [1]: Solubility in water and in ophthalmic carriers. It is filed as physicochemical. An excerpt:
Specifically, a mixture of approximately 85% petrolatum and 15% mineral oil is a suitable carrier. […] The petrolatum in this ophthalmic formulation can act as a carrier for a combination of dissolved and suspended Methoxy-X04, by altering the aqueous portions of the eye to accept the compound more readily by adding lipophilic material to the solution of the eye's environment and by altering the interactions of the eye with the compound by shielding it from the aqueous environment.
Hydroxypropyl methylcellulose can act in part as a carrier of microparticles in suspension for a mixture of dissolved and suspended Methoxy-X04. This effect occurs by altering the aqueous portions of the eye to enable them to accept the hydrophobic compounds more readily, by adding lipophilic material to the eye's environment and/or by altering the interactions of the compound with the eye by shielding the hydrophobic compound from the aqueous environment.
X34 (Formula II) is a ligand molecule that is derived from Congo Red by replacing the naphthalene sulfonic acids with salicylic acids and the azo linkage with an ethenyl link. […] At room temperature, X34 is a yellow powder, which fluoresces upon exposure to UV light. The logPoct for X34 is 0.42. […] Preferably, ophthalmic formulations containing X34 (or other hydrophilic compounds of Formula I) have LogD values of between 1 and 3.

Series [2] in a line: Particle size after the grinding process. It is filed as physicochemical. The following applies: micronized by the grinding process. The protocol:
For example, Polysorbate 80 is weighed into a polypropylene bottle, and an initial amount of sterile water for injection, USP, is weighed into the bottle. Next, Methoxy-X04 is weighed and added to the bottle. The current batch weight is determined, and the final amount of sterile water for injection to adjust the formulation to a final batch weight is added. Then, the YTZ grinding media is added to the bottle, and the bottle is placed on a roller mill for a minimum of 12 hours at a setting of 50%.
After the milling process, a polishing filter and Masterflex tubing are connected to the bottom of a Millipore housing assembly, while a high-pressure hose is attached to the top of the Millipore housing. Using a nitrogen pressure gauge, the solution is pushed thorough the housing and the polish filter. For example, the pressure used is between 3 psi and 5 psi. This grinding process yields micronized Methoxy-X04 having a mean particle size of 1.157 μm with 100% of particles smaller than 10 μm and greater than 75% of particles smaller than 5 μm. Thus, those skilled in the art will recognize that this exemplary milling process produces Methoxy-X04 particles that are suitable for either topical or parenteral formulation, without requiring the use of solvents, such as dimethyl sulfoxide, that are incompatible with use in drug formulations.

For series [3] the following is noted: injected into the tail; ex vivo 2-photon fluorescent microscopy; cited from earlier work.
The target in series [4] is T1, Aβ(1-40) (Homo sapiens, UniProt P05067).
T1 construct: Aβ(1-40)
Conditions: * = compound only partially soluble at this concentration, cited from earlier work.

For series [5] the following is noted: cited from earlier work.
Series [6] relates to Aβ plaques. The following applies: in vivo animal models and ex vivo human tissue (CR: Aβ aggregations); cited from earlier work.
The conditions of series [7]: pH 7.4; cited from earlier work.
Series [8] is described as follows: Octanol-water partition coefficient. The following applies: pH 7.4. It is filed as physicochemical. The text has this: Those skilled in the art will recognize that the hydrophobicity and hydrophilicity of a substance can be measured using the octanol-water partition coefficient (“Poct” or “Kow”), for compounds whose solubility is not altered by the pH and ionic characteristic of the solute, or LogD value, for compounds whose solubility is altered by the pH and ionic characteristic of the solute. LogD is the logarithm of the distribution coefficient, which is the ratio of the sum of the concentrations of all species of a compound in octanol to the sum of the concentrations of all species of the compound in water.
In these contexts, hydrophobicity is related to factors such as absorption, bioavailabity, hydrophobic drug-receptor interactions, metabolism, and/or toxicity. As used herein, the logPoct is synonymous to logKow, and both measurements are used interchangeably herein. Likewise, logPoct is a functionally equivalent measure to LogD; both values reflect the degree of solubility of a given compound.

The mark [9] stands for this setting: given as Inact, tested at 10 μm.

Like-named read-outs stand apart in the source and are kept apart here.

Usually Ki stands for the dissociation constant of the complex between target and ligand, obtained from inhibition or displacement.

T1 sequence (P05067 672-711 limits assumed): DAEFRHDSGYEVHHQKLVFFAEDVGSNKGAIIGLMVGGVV

For the compound `COc1cc(/C=C/c2ccc(O)cc2)ccc1/C=C/c1ccc(O)cc1` [2-CH3O-X:E:B04], the solubility in water entry in series [1] is listed as “insoluble”. Besides, the “state in carrier at 10 mg/gm” value in series [1] (10 mg/gm of carrier, petrolatum and mineral oil) was “remains primarily in suspension”. The “state in carrier at 0.1%” value in series [1] (0.1% (1 mg per gm carrier), aqueous formulation with hydroxypropyl methylcellulose) is “remains in solution”. The “state in carrier at 0.1%” value in series [1] (0.1% (1 mg per gm of carrier), about 85% petrolatum and 15% mineral oil) was “remains in solution”. Moreover, in series [2], the mean particle size worked out at 1.157 μm, the “particles smaller than 5 μm” value was “greater than 75%” and the “particles smaller than 10 μm” value came to 100%. The “detection in the lens” value in series [3] is on record as “could be detected in the supranuclear region of the lens”. The Ki in series [4] ([3H]CG binding to Aβ(1-40)) is 27 nM. For the same compound, the “Oral rat LD50” value in series [5] was about 15000 mg/kg. The “binding to Aβ plaques / aggregations” value in series [6] is “selectively binds to Aβ plaques”.

In the case of `COc1ccc(/C=C/c2ccc(/C=C/c3ccc(OC)cc3)c(OC)c2)cc1` [2′-CH3O-X:E:B04 bis(4-methoxy)], the Ki in series [4] (setting [9]) was over 10000 nM.

In the case of `Oc1ccc(/C=C/c2ccc(/C=C/c3ccc(O)cc3)c(O)c2)cc1` [2′-HO-X:E:B04], the Ki in series [4] ([3H]CG binding to Aβ(1-40)) is 9 nM.

As for `COc1ccc(/C=C/c2ccc(/C=C/c3ccc(OC)cc3)c(O)c2)cc1` [2′-HO-X:E:B04bis(4-methoxy)], the Ki in series [4] (setting [9]) was over 10000 nM.

In the case of `O=C(O)c1cc(/N=N/c2ccc(-c3ccc(/N=N/c4ccc(O)c(C(=O)O)c4)cc3)cc2)ccc1O` [CG, Chrysamine G], in series [7], the logPoct was 1.8 and the “octanol-water partition coefficient (Poct)” value was 60. For the same compound, the “Poct of CG relative to CR” value in series [8] is listed as about 100 fold.

As for `Nc1c(/N=N/c2ccc(-c3ccc(/N=N/c4cc(S(=O)(=O)O)c5ccccc5c4N)cc3)cc2)cc(S(=O)(=O)O)c2ccccc12` [CR, Congo Red], in series [7], the logPoct is given as 0.18 and the “octanol-water partition coefficient (Poct)” value was 0.7. The “binding to Aβ plaques / aggregations” value in series [6] is “selectively binds to Aβ aggregations with high affinity”.

For the compound `COc1ccc(/C=C/c2ccc(/C=C/c3ccc(OC)cc3)cc2)cc1` [X:E:B04 bis(4-methoxy)], the inhibitory constant (Ki) in series [4] (setting [9]) is over 10000 nM.

With `Oc1ccc(/C=C/c2ccc(/C=C/c3ccc(O)cc3)cc2)cc1` [X:E:B04], the inhibition constant Ki in series [4] ([3H]CG binding to Aβ(1-40)) is 3100 nM.

With `COC(=O)c1cccc(/C=C/c2ccc(/C=C/c3cccc(C(=O)OC)c3)cc2)c1` [X:E:B30 dimethylester], the Ki in series [4] (setting [9]) is over 10000 nM.

For `O=C(O)c1cccc(/C=C/c2ccc(/C=C/c3cccc(C(=O)O)c3)cc2)c1` [X:E:B30], the Ki in series [4] ([3H]CG binding to Aβ(1-40)) was 135 nM.

As for `O=C(O)c1cc(/C=C/c2ccc(/C=C/c3ccc(O)c(C(=O)O)c3)cc2)ccc1O` [X:E:B34 (X-34)], the solubility in water result in series [1] is recorded as “moderately soluble”. Moreover, the “state in carrier at 0.1%” value in series [1] (0.1% of X34 (1 mg active per gm of carrier)) was “appears to remain in solution”. In addition, the Ki in series [4] ([3H]CG binding to Aβ(1-40)) is 18 nM. Further, in series [5], the “Oral rat LD50” value is about 15000 mg/kg. Besides, the “binding to Aβ plaques / aggregations” value in series [6] was “selectively binds to β-amyloid plaques”.

In the case of `COC(=O)c1cc(/C=C/c2ccc(/C=C/c3ccc(OC)c(C(=O)OC)c3)cc2)ccc1OC` [X:E:B34 bis(4-methoxy) dimethyl ester], the Ki in series [4] (setting [9]) was over 10000 nM.

Turning to `COc1ccc(/C=C/c2ccc(/C=C/c3ccc(OC)c(C(=O)O)c3)cc2)cc1C(=O)O` [X:E:B34 bis(4-methoxy)], in series [4] ([3H]CG binding to Aβ(1-40)), the Ki is 47 nM.

Regarding `COC(=O)c1cc(/C=C/c2ccc(/C=C/c3ccc(O)c(C(=O)OC)c3)cc2)ccc1O` [X:E:B34 dimethylester], the inhibition constant (Ki) in series [4] ([3H]CG binding to Aβ(1-40)) was 119 nM.
